According to patent US11149068B2, “Pore-forming peptides and uses thereof” (The Administrators of the Tulane Educational Fund, priority 2018, dated 2021):
Ends that are not written are not given here.

Assays:
[1] = Macromolecular leakage assay (release of 40 kDa TAMRA-biotin-dextran from lipid vesicles); assay type: biochemical; conditions: for dextran release at pH 7: peptide to lipid ratios as high as 1:50
Experimental: (§1) Large unilamellar vesicles for leakage assays were prepared as previously described (37) in 100 mM potassium chloride, with 10 mM sodium phosphate or 10 mM sodium acetate buffer. For small molecule leakage, lipids, dried from chloroform, were resuspended in buffer made of: 12.5 mM ANTS, 45 mM DPX, 5 mM HEPES, and 20 mM sodium chloride. For macromolecular leakage assays, lipids were resuspended in buffer with 1 mg/ml TAMRA-biotin-dextran (TBD). Lipid suspensions were frozen and thawed ten times and then extruded 10 times using a 0.1 um pore size Nuclepore polycarbonate filter (38). After extrusion, external ANTS and DPX were removed by gel filtration with Sephadex G100. External TBD was removed using streptavidin agarose resin.
As described previously (33), 40 nM Alexafluor488-labelled streptavidin (SA) was added to a solution of vesicles with entrapped TBD. This solution was added to wells of a 96-well plate containing peptide, and the plate was incubated for 60 min. Release of the 40 kDa dextran enables TBD-SA complex formation, which leads to quenching of the AF488 fluorescence (excitation 495 nm, emission at 519 nm) by TAMRA. The fraction of macromolecule leakage was determined by Equation 2:
[formula] where I is the intensity at 60 min, Ibackground is the intensity of a vesicle control with no peptide, and Itriton is the intensity in the presence of vesicles and 0.1% v/v of the detergent Triton X-100, added to solubilize the vesicles and release the ANTS.
Step 4: Next, to the same wells, a different preparation of vesicles was added. These vesicles have entrapped 40 kDa TBD and external Alexafluor488 streptavidin. The TBD vesicles were in sodium acetate buffer at pH 4 so that the final pH in each well was 5.0. This second addition of vesicles increased the total volume to 200 μl which decreased peptide to 2.5 μM and decreased ANTS vesicle concentration to 0.5 mM. The new TBD vesicles were present at 1.5 mM so that the total peptide to total lipid ratio was roughly about 1:800.
Step 5: After 60 minutes, the intensity of the AF488-streptavidin was measured to quantitate macromolecule release, which is calculated with equation 2. This orthogonal and sequential screen gives two measurements that are used to identify peptides with the desired properties: i) Small molecule release at pH 7 and P:L=1:200; ii) Macromolecule release at pH 5 and P:L=1:800.
Verification of positive peptides. Since the selected peptides are very similar to each other, a subset of them were synthesized and purified for detailed validation. Tested peptides included four representative sequences with five acidic residues, pHD24, pHD34, pHD108 and pHD118 as well as pHD15, one of the two with six acidic residues. Because there is interest in pH-triggered macromolecule release at low pH, the positive peptides were validated with the macromolecular release assay using 40 kDa dextran and 53 kD streptavidin, described above. Dextran leakage was measured as functions of peptide concentration and pH using vesicles made from phosphatidylcholine lipids.

[2] = Circular dichroism spectroscopy of peptide secondary structure in the presence of vesicles versus pH; assay type: physicochemical; conditions: P:L=1:200
Experimental: FIGS. 5A-5B are graphs depicting example binding and folding data. FIG. 5A: Circular dichroism spectra of pHD108 (SEQ ID NO: 9) versus pH at P:L=1:200 in 1 mM POPC vesicles. Separate samples are made at each pH and equilibrated for 30 minutes prior to the measurement. The spectra show a structural transition from random coil at pH 7 to classical α-helix at pH<5.75. FIG. 5B: Tryptophan fluorescence spectra of pHD108 at P:L=1:200 in 1 mM POPC vesicles. Separate samples are made at each pH and equilibrated for 30 minutes prior to the measurement. The spectra show a transition from a more polar, water-exposed environment to a less polar or buried environment consistent with peptide partitioning into bilayers.
Peptide secondary structure in the presence of vesicles as a function of pH was studied by circular dichroism spectroscopy. Example CD spectra for pHD108 at P:L=1:200 are seen in FIG. 5A and show a pH-triggered transition from random coil to α-helical structure with an effective pKa around 5.5. Circular dichroism was measured in a JASCO 810 spectropolarimeter. Samples in buffers of various pH were prepared by mixing peptide and vesicle solutions, each prepared at the needed pH. Spectra were collected on samples of 2 mM vesicles and 10 μM peptide in 1 mm path rectangular quartz cuvette after 1 hour of equilibration.

[3] = test system: Chinese Hamster Ovary cells; assay: Cell viability, Alamar Blue assay; assay type: cell-based; conditions: ten minutes with peptide at pH 5 or pH 7, overnight recovery; except at the highest concentration
Experimental: FIGS. 7A-7B are graphs showing the effect of peptides on the viability Chinese Hamster Ovary cells incubated with either the lytic peptide MelP5, or the pH-triggerred membrane permeabilizing peptide pHD108. Cells were grown to 50% confluency, and then treated for ten minutes with peptide in cell culture media at pH 5 (FIG. 7A) or at pH 7 (FIG. 7B). Full media with growth factors was added and the cells recovered overnight. Viability was assessed with the Alamar Blue assay. The values were normalized to cells treated with media only (negative control) and media only, no cells (positive control).

[4] = Small molecule leakage assay (ANTS/DPX release from lipid vesicles); assay type: biochemical; conditions: screen conditions
Experimental: as §1, with “External TBD was removed using streptavidin agarose resin.” left out
Lipid vesicles with entrapped ANTS and DPX were diluted into wells of a 96 well plate containing peptide. After 30 minutes, vesicle permeabilization was measured by an increase in ANTS fluorescence, with excitation at 350 nm and emission at 519 nm. Fractional leakage was quantified using Equation 1: […]
Step 2: Aliquots of peptides in water from the plate in Step 1 were added to wells of a second plate, followed by addition of 1 mM lipid vesicles in 100 μl of sodium phosphate buffer at pH 7. […] Leakage, if it occurs, causes an increase in fluorescence of ANTS. […]
Step 3: After 30 minutes of incubation, ANTS fluorescence was measured for each well to quantitate small molecule release using equation 1.

GIGEVLHELADDLPDLQEWIHAAQQL [pHD15]
apparent pKa of macromolecule leakage (curve midpoints) ([1]; P:L=1:200, 1 mM POPC vesicles, 40 kDa dextran): lowest apparent pKa value
dextran release at pH 7 [1]: no activity

GIGEVLHELAEGLPELQEWIHAAQQL [pHD108]
effective pKa of transition from random coil to α-helical structure [2]: around 5.5
toxicity to mammalian cells [3]: did not exhibit toxicity

GIGDVLHELAADLPELQEWIHAAQQL [pHD24]
dextran release at pH 7 [1]: no activity

GIGAVLKVLATGLPALISWIKAAQQL [MelP5, synthetically evolved gain-of-function variant of melittin, non pH-sensitive macromolecular pore-former]
release of small molecule probe (ANTS) ([4]; 4 nmol): essentially complete release
macromolecule release ([1]; screen conditions, 1 nmol, all pH values): partial
release of macromolecule probe (TBD) ([1]; screen conditions, 4 nmol (P:L=1:100)): essentially complete release

Triton X-100
release of small molecule probe (ANTS) ([4]; 0.1% v/v): essentially complete release
release of macromolecule probe (TBD) ([1]; screen conditions, 0.1% v/v): essentially complete release
